This test deals with T1, human ALK5 (recombinant TGF β1 N-term GST-tagged, 80-end) (Homo sapiens, UniProt P36897).
T1 construct: human ALK5 (recombinant TGF β1 N-term GST-tagged, 80-end); GST (N); purchased
T1 sequence (P36897 80-503 limits assumed): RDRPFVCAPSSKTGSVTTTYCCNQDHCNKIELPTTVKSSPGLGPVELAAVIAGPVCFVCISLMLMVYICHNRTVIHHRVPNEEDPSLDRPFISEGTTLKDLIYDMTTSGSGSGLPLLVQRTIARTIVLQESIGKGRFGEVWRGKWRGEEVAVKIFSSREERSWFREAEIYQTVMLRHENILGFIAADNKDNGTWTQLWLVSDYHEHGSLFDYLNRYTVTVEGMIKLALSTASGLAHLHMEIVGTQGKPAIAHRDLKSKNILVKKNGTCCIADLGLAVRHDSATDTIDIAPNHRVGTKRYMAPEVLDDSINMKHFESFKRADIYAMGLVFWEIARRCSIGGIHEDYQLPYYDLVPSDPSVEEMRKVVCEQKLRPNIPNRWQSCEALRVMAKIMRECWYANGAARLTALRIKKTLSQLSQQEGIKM
The test can be described thus: ADP-GLO kinase assay, biochemical ALK5 assay. Particulars: pIC50 converted to pKi using the Cheng-Prusoff equation, ATP at Km, or high ATP (30-fold Km) for very potent compounds, 25° C. As for the experimental part:
The enzymatic activity of compounds of the present invention was monitored measuring the formation of ADP using the ADP-GLO Kinases assay. Following the incubation of the purified enzyme, a substrate and ATP, the produced ADP was converted into ATP, which in turn was converted into light by Ultra-Glo Luciferase. The luminescent signal positively correlated with ADP amount and kinase activity. Briefly, the kinase reaction was performed by incubating 2.6 nM of the purified, commercially available human ALK5 (recombinant TGF β1 N-term GST-tagged, 80-end), a final concentration of TGFβ1 peptide 94.5 μM (Promega, T36-58) and ultra-pure ATP (Promega V915B). The ATP concentration was set at the Km value (concentration of substrate which permits the enzyme to achieve half maximal velocity (Vmax)) of ALK5 (0.5 μM). Compound and ALK5 kinase were mixed and incubated for 15 mins. Reactions were initiated by addition of ATP at a final concentration in the assay of […]. After an incubation of 120 min, the reaction was stopped, and ADP production detected with ADP-Glo kit according to manufacturer's indications. To overcome the assay wall limit for very potent compounds the assay protocol was changed by using a high ATP concentration (30-fold Km). Compounds and ALK5 kinase were mixed for 15 min and the reaction initiated by addition of TGFβ1 peptide and ATP at a final concentration in the assay of 15 μM. After an incubation of 60 min, the kinase reaction was stopped, and ADP production detected with ADP-Glo kit according to manufacturer's indications.
All reaction and incubation steps were performed at 25° C. and the assays were performed in 384-well format and validated using a selection of reference compounds tested in 11-point concentration-response curve.
Results were expressed as pIC50 (negative logarithm of IC50) and subsequently converted to pKi (negative logarithm of […]) using the Cheng-Prusoff equation. The higher the value of pKi, the greater the inhibition of ALK5 activity.
A general note: ADP-Glo turns the ADP formed in a reaction into a luminescent signal.

As to `CN1CCN(CCC(=O)Nc2cc(Nc3cc(-c4cc(Cl)ccc4F)nnc3C3CC(=O)N(C)C3)ccn2)CC1` (stereo not shown) [Example 23, N-(4-((6-(5-chloro-2-fluorophenyl)-3-(1-methyl-5-oxopyrrolidin-3-yl)pyridazin-4-yl)amino)pyridin-2-yl)-3-(4-methylpiperazin-1-yl)propanamide], the Ki was 1 to 3.16 nM.
To `CN1CCN(CCC(=O)Nc2cc(Nc3cc(-c4cc(Cl)ccc4F)nnc3C3=CCCNC3)ccn2)CC1` [Example 12, N-(4-{[6-(5-chloro-2-fluorophenyl)-3-(1,2,5,6-tetrahydropyridin-3-yl)pyridazin-4-yl]amino}pyridin-2-yl)-3-(4-methylpiperazin-1-yl)propanamide] belongs 1 to 3.16 nM; to `CN1CCN(CCC(=O)Nc2cc(Nc3cc(-c4cc(Cl)ccc4F)nnc3C3CNC3)ccn2)CC1` [Example 10, N-(4-{[3-(azetidin-3-yl)-6-(5-chloro-2-fluorophenyl)pyridazin-4-yl]amino}pyridin-2-yl)-3-(4-methylpiperazin-1-yl)propanamide], 0.126 to 0.794 nM; to `CN1CCN(CCC(=O)Nc2cc(Nc3cc(-c4cc(Cl)ccc4F)nnc3C3CN(C(=O)OC(C)(C)C)C3)ccn2)CC1` [Example 9, tert-butyl 3-[6-(5-chloro-2-fluorophenyl)-4-({2-[3-(4-methylpiperazin-1-yl)propanamido]pyridin-4-yl}amino)pyridazin-3-yl]azetidine-1-carboxylate], 0.126 to 0.794 nM.
Take `CN1CCC(c2nnc(-c3cc(Cl)ccc3F)cc2Nc2ccnc(NC(=O)CCN3CCN(C)CC3)c2)CC1` [Example 8, N-(4-{[6-(5-chloro-2-fluorophenyl)-3-(1-methylpiperidin-4-yl)pyridazin-4-yl]amino}pyridin-2-yl)-3-(4-methylpiperazin-1-yl)propanamide]: the Ki was 1 to 3.16 nM.
To `CN1CCN(CCC(=O)Nc2cc(Nc3cc(-c4cc(Cl)ccc4F)nnc3C3CCC(=O)S3)ccn2)CC1` (stereo not shown) [Example 19, N-(4-((6-(5-chloro-2-fluorophenyl)-3-(5-oxotetrahydrothiophen-2-yl)pyridazin-4-yl)amino)pyridin-2-yl)-3-(4-methylpiperazin-1-yl)propanamide] belongs 0.126 to 0.794 nM; to `CN1CCN(CCC(=O)Nc2cc(Nc3cc(-c4cc(Cl)ccc4F)nnc3C3CCN(C(=O)OC(C)(C)C)CC3)ccn2)CC1` [Example 2, tert-butyl 4-[6-(5-chloro-2-fluorophenyl)-4-({2-[3-(4-methylpiperazin-1-yl)propanamido]pyridin-4-yl}amino)pyridazin-3-yl]piperidine-1-carboxylate], 1 to 3.16 nM.
On to `COC(=O)N1CCC(c2nnc(-c3cc(Cl)ccc3F)cc2Nc2ccnc(NC(=O)CCN3CCN(C)CC3)c2)CC1` [Example 7, methyl 4-[6-(5-chloro-2-fluorophenyl)-4-({2-[3-(4-methylpiperazin-1-yl)propanamido]pyridin-4-yl}amino)pyridazin-3-yl]piperidine-1-carboxylate], for which the Ki is 0.126 to 0.794 nM.
Take `CN1CCN(CCC(=O)Nc2cc(Nc3cc(-c4cc(Cl)ccc4F)nnc3C3CCN3)ccn2)CC1` (stereo not shown) [Example 16, N-(4-{[3-(azetidin-2-yl)-6-(5-chloro-2-fluorophenyl)pyridazin-4-yl]amino}pyridin-2-yl)-3-(4-methylpiperazin-1-yl)propanamide]: the Ki was 0.126 to 0.794 nM.
Regarding `CN1CCN(CCC(=O)Nc2cc(Nc3cc(-c4cc(Cl)ccc4F)nnc3C3CCOC3)ccn2)CC1` (stereo not shown) [Example 21, N-(4-((6-(5-chloro-2-fluorophenyl)-3-(tetrahydrofuran-3-yl)pyridazin-4-yl)amino)pyridin-2-yl)-3-(4-methylpiperazin-1-yl)propanamide], the Ki is 0.126 to 0.794 nM.
As for `Fc1ccc(Cl)cc1-c1cc(Nc2ccc3ncsc3c2)c(C2=CCNCC2)nn1` [Example C1, N-[6-(5-chloro-2-fluorophenyl)-3-(1,2,3,6-tetrahydropyridin-4-yl)pyridazin-4-yl]-1,3-benzothiazol-6-amine, reference compound], the Ki is 60.3 nM.
As for `CN1CCN(CCC(=O)Nc2cc(Nc3cc(-c4cc(Cl)ccc4F)nnc3C3COC(C)(C)N3C(=O)OC(C)(C)C)ccn2)CC1` (stereo not shown) [Example 20, tert-butyl 4-(6-(5-chloro-2-fluorophenyl)-4-((2-(3-(4-methylpiperazin-1-yl)propanamido)pyridin-4-yl)amino)pyridazin-3-yl)-2,2-dimethyloxazolidine-3-carboxylate], the Ki is 0.126 to 0.794 nM.
Next, `CN1CCN(CCC(=O)Nc2cc(Nc3cc(-c4cc(Cl)ccc4F)nnc3C3CCC(=O)N3C)ccn2)CC1` (stereo not shown) [Example 17, N-(4-((6-(5-chloro-2-fluorophenyl)-3-(1-methyl-5-oxopyrrolidin-2-yl)pyridazin-4-yl)amino)pyridin-2-yl)-3-(4-methylpiperazin-1-yl)propanamide]: 1 to 3.16 nM; `CC(=O)N1CCC=C(c2nnc(-c3cc(Cl)ccc3F)cc2Nc2ccnc(NC(=O)CCN3CCN(C)CC3)c2)C1` [Example 14, N-(4-{[3-(1-acetyl-1,2,5,6-tetrahydropyridin-3-yl)-6-(5-chloro-2-fluorophenyl)pyridazin-4-yl]amino}pyridin-2-yl)-3-(4-methylpiperazin-1-yl)propanamide]: 1 to 3.16 nM; `CN1CCN(CCC(=O)Nc2cc(Nc3cc(-c4cc(Cl)ccc4F)nnc3C3=CCCN(C(=O)OC(C)(C)C)C3)ccn2)CC1` [Example 11, tert-butyl 5-[6-(5-chloro-2-fluorophenyl)-4-({2-[3-(4-methylpiperazin-1-yl)propanamido]pyridin-4-yl}amino)pyridazin-3-yl]-1,2,3,6-tetrahydropyridine-1-carboxylate]: 0.126 to 0.794 nM.
`CN1CCN(CCC(=O)Nc2cc(Nc3cc(-c4cc(Cl)ccc4F)nnc3C3CCO3)ccn2)CC1` (stereo not shown) [Example 18, N-(4-{[6-(5-chloro-2-fluorophenyl)-3-(oxetan-2-yl)pyridazin-4-yl]amino}pyridin-2-yl)-3-(4-methylpiperazin-1-yl)propanamide]: the Ki was 0.126 to 0.794 nM.
To `CN1CCN(CCC(=O)Nc2cc(Nc3cc(-c4cc(Cl)ccc4F)nnc3C3CCCS3)ccn2)CC1` (stereo not shown) [Example 22, N-(4-((6-(5-chloro-2-fluorophenyl)-3-(tetrahydrothiophen-2-yl)pyridazin-4-yl)amino)pyridin-2-yl)-3-(4-methylpiperazin-1-yl)propanamide] belongs 0.126 to 0.794 nM; to `CN1CCN(CCC(=O)Nc2cc(Nc3cc(-c4cc(Cl)ccc4F)nnc3C3=CCN(C(=O)OC(C)(C)C)CC3)ccn2)CC1` [Example 1, tert-butyl 4-[6-(5-chloro-2-fluorophenyl)-4-({2-[3-(4-methylpiperazin-1-yl)propanamido]pyridin-4-yl}amino)pyridazin-3-yl]-1,2,3,6-tetrahydropyridine-1-carboxylate], 1 to 3.16 nM.
Consider `CN1CCN(CCC(=O)Nc2cc(Nc3cc(-c4cc(Cl)ccc4F)nnc3C3=CCCN(C)C3)ccn2)CC1` [Example 13, N-(4-{[6-(5-chloro-2-fluorophenyl)-3-(1-methyl-1,2,5,6-tetrahydropyridin-3-yl)pyridazin-4-yl]amino}pyridin-2-yl)-3-(4-methylpiperazin-1-yl)propanamide], for which the Ki was 1 to 3.16 nM.
To `CN1CCN(CCC(=O)Nc2cc(Nc3cc(-c4cc(Cl)ccc4F)nnc3C3=CCNCC3)ccn2)CC1` [Example 3, N-(4-{[6-(5-chloro-2-fluorophenyl)-3-(1,2,3,6-tetrahydropyridin-4-yl)pyridazin-4-yl]amino}pyridin-2-yl)-3-(4-methylpiperazin-1-yl)propanamide] belongs 1 to 3.16 nM; to `CN1CCN(CCC(=O)Nc2cc(Nc3cc(-c4cc(Cl)ccc4F)nnc3C3CCN3C(=O)OC(C)(C)C)ccn2)CC1` (stereo not shown) [Example 15, tert-butyl 2-[6-(5-chloro-2-fluorophenyl)-4-({2-[3-(4-methylpiperazin-1-yl)propanamido]pyridin-4-yl}amino)pyridazin-3-yl]azetidine-1-carboxylate], 0.126 to 0.794 nM.
In the case of `CN1CCN(CCC(=O)Nc2cc(Nc3cc(-c4cc(Cl)ccc4F)nnc3C3CCNCC3)ccn2)CC1` [Example 4, N-(4-{[6-(5-chloro-2-fluorophenyl)-3-(piperidin-4-yl)pyridazin-4-yl]amino}pyridin-2-yl)-3-(4-methylpiperazin-1-yl)propanamide], the Ki was 0.126 to 0.794 nM.

For orientation: Ki means a measure of affinity in units of concentration, obtained from inhibition or displacement.

For the origin of these results see patent US20250100997A1, “PYRIDAZINYL AMINO DERIVATIVES AS ALK5 INHIBITORS” (CHIESI FARMACEUTICI S.P.A., priority 2022, published 2025).
